Experimental data reported in PubChem BioAssay AID2060509 (Molecular Pharmacology Branch, DTP, NCI, 2025).

System: 485176-168-R4-J1-PDC spheroids with HUVEC/MSC, viability
Experiment: Anticancer human tumor 485176-168-R4-J1-PDC patient-derived pancreatic adenocarcinoma cell line growth inhibition [GQUAD]
Settings: for IC50: curve of first compound; for viability, T/C: stronger effect = lower value
Summary of the method: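 Multi-cell-type spheroids of tumor cells with HUVEC and mesenchymal stem cells, treated with drug combinations. Concentrations descend in half-log steps from near clinical Cmax, or from 10 microM where Cmax is unknown; viability read-out.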

[1] = second compound 0.0316 µM, first compound 0.0316 µM
[2] = second compound 0.0316 µM, first compound 0.1 µM
[3] = second compound 0.0316 µM, first compound 0.316 µM
[4] = second compound 0.0316 µM, first compound 1 µM
[5] = second compound 0.0316 µM, first compound 3.16 µM
[6] = second compound 0.0316 µM, first compound 10 µM
[7] = second compound 0.1 µM, first compound 0.0316 µM
[8] = second compound 0.1 µM, first compound 0.1 µM
[9] = second compound 0.1 µM, first compound 0.316 µM
[10] = second compound 0.1 µM, first compound 1 µM
[11] = second compound 0.1 µM, first compound 3.16 µM
[12] = second compound 0.1 µM, first compound 10 µM
[13] = second compound 0.316 µM, first compound 0.0316 µM
[14] = second compound 0.316 µM, first compound 0.1 µM
[15] = second compound 0.316 µM, first compound 0.316 µM
[16] = second compound 0.316 µM, first compound 1 µM
[17] = second compound 0.316 µM, first compound 3.16 µM
[18] = second compound 0.316 µM, first compound 10 µM
[19] = second compound 1 µM, first compound 0.0316 µM
[20] = second compound 1 µM, first compound 0.1 µM
[21] = second compound 1 µM, first compound 0.316 µM
[22] = second compound 1 µM, first compound 1 µM
[23] = second compound 1 µM, first compound 3.16 µM
[24] = second compound 1 µM, first compound 10 µM
[25] = second compound 3.16 µM, first compound 0.0316 µM
[26] = second compound 3.16 µM, first compound 0.1 µM
[27] = second compound 3.16 µM, first compound 0.316 µM
[28] = second compound 3.16 µM, first compound 1 µM
[29] = second compound 3.16 µM, first compound 3.16 µM
[30] = second compound 3.16 µM, first compound 10 µM
[31] = second compound 10 µM, first compound 0.0316 µM
[32] = second compound 10 µM, first compound 0.1 µM
[33] = second compound 10 µM, first compound 0.316 µM
[34] = second compound 10 µM, first compound 1 µM
[35] = second compound 10 µM, first compound 3.16 µM
[36] = second compound 10 µM, first compound 10 µM
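Further: spheroids exposed to compounds for seven days before readout.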
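Wherever viability, T/C is given: percent viability relative to DMSO vehicle control wells as 100%.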

SMILES: C#Cc1c(F)ccc2cc(O)cc(-c3ncc4c(N5CC6CCC(C5)N6)nc(OCC56CCCN5CC(F)C6)nc4c3F)c12 (stereo not given) + Cc1[nH]c2ccc(F)cc2c1-c1nc2c3cccnc3c3ncccc3c2[nH]1
- IC50 (second compound 0.0316 µM): > 10000 nM
- IC50 (second compound 0.1 µM): > 10000 nM
- IC50 (second compound 0.316 µM): > 10000 nM
- IC50 (second compound 1 µM): > 10000 nM
- IC50 (second compound 3.16 µM): > 10000 nM
- IC50 (second compound 10 µM): > 10000 nM
- viability, T/C [1]: 92.5%
- viability, T/C [2]: 95.7%
- viability, T/C [3]: 91.5%
- viability, T/C [4]: 84.1%
- viability, T/C [5]: 90.3%
- viability, T/C [6]: 89.7%
- viability, T/C [7]: 93%
- viability, T/C [8]: 102%
- viability, T/C [9]: 101%
- viability, T/C [10]: 109%
- viability, T/C [11]: 103%
- viability, T/C [12]: 93.6%
- viability, T/C [13]: 91%
- viability, T/C [14]: 101%
- viability, T/C [15]: 93.4%
- viability, T/C [16]: 107%
- viability, T/C [17]: 99.1%
- viability, T/C [18]: 87%
- viability, T/C [19]: 105%
- viability, T/C [20]: 89.2%
- viability, T/C [21]: 92.4%
- viability, T/C [22]: 81.5%
- viability, T/C [23]: 109%
- viability, T/C [24]: 93%
- viability, T/C [25]: 98.9%
- viability, T/C [26]: 80.9%
- viability, T/C [27]: 105%
- viability, T/C [28]: 97.6%
- viability, T/C [29]: 90.4%
- viability, T/C [30]: 95.3%
- viability, T/C [31]: 96.6%
- viability, T/C [32]: 92%
- viability, T/C [33]: 82.7%
- viability, T/C [34]: 87.8%
- viability, T/C [35]: 85.1%
- viability, T/C [36]: 86.5%

SMILES: Cc1cccc(N(C)C(=O)C2C(O)CCN2c2nc(C)cc(C(F)(F)F)c2C#N)c1 (stereo not given) + Cc1cnc(CNC(=O)c2c(=O)c3ccc(N4CCCN(C)CC4)nc3n3c2sc2ccccc23)cn1
- IC50 (second compound 0.0316 µM): > 10000 nM
- IC50 (second compound 0.1 µM): > 10000 nM
- IC50 (second compound 0.316 µM): > 10000 nM
- IC50 (second compound 1 µM): > 10000 nM
- IC50 (second compound 3.16 µM): < 31.6 nM
- IC50 (second compound 10 µM): < 31.6 nM
- viability, T/C [1]: 91.9%
- viability, T/C [2]: 100%
- viability, T/C [3]: 89%
- viability, T/C [4]: 97.2%
- viability, T/C [5]: 96%
- viability, T/C [6]: 98.3%
- viability, T/C [7]: 64.2%
- viability, T/C [8]: 78%
- viability, T/C [9]: 78.6%
- viability, T/C [10]: 67.9%
- viability, T/C [11]: 65.8%
- viability, T/C [12]: 67.8%
- viability, T/C [13]: 66.8%
- viability, T/C [14]: 64%
- viability, T/C [15]: 56.3%
- viability, T/C [16]: 60.9%
- viability, T/C [17]: 66.6%
- viability, T/C [18]: 60.5%
- viability, T/C [19]: 52%
- viability, T/C [20]: 45.5%
- viability, T/C [21]: 53.9%
- viability, T/C [22]: 45.9%
- viability, T/C [23]: 57.1%
- viability, T/C [24]: 47.5%
- viability, T/C [25]: 44%
- viability, T/C [26]: 47.9%
- viability, T/C [27]: 39.5%
- viability, T/C [28]: 43.3%
- viability, T/C [29]: 47.8%
- viability, T/C [30]: 40.7%
- viability, T/C [31]: 42.7%
- viability, T/C [32]: 39%
- viability, T/C [33]: 43.4%
- viability, T/C [34]: 38.1%
- viability, T/C [35]: 45.7%
- viability, T/C [36]: 40.6%

SMILES: COc1ncnc(C2CC2)c1-c1ncc2cnn(Cc3ccc(-c4nc(C(F)(F)F)cn4C(C)C)cc3)c2n1 + Cc1[nH]c2ccc(F)cc2c1-c1nc2c3cccnc3c3ncccc3c2[nH]1
- IC50 (second compound 0.0316 µM): > 10000 nM
- IC50 (second compound 0.1 µM): > 10000 nM
- IC50 (second compound 0.316 µM): > 10000 nM
- IC50 (second compound 1 µM): > 10000 nM
- IC50 (second compound 3.16 µM): > 10000 nM
- IC50 (second compound 10 µM): > 10000 nM
- viability, T/C [1]: 118%
- viability, T/C [2]: 81.8%
- viability, T/C [3]: 101%
- viability, T/C [4]: 105%
- viability, T/C [5]: 104%
- viability, T/C [6]: 94.2%
- viability, T/C [7]: 101%
- viability, T/C [8]: 106%
- viability, T/C [9]: 102%
- viability, T/C [10]: 102%
- viability, T/C [11]: 102%
- viability, T/C [12]: 110%
- viability, T/C [13]: 91%
- viability, T/C [14]: 85.4%
- viability, T/C [15]: 107%
- viability, T/C [16]: 92.4%
- viability, T/C [17]: 110%
- viability, T/C [18]: 110%
- viability, T/C [19]: 84.9%
- viability, T/C [20]: 106%
- viability, T/C [21]: 118%
- viability, T/C [22]: 108%
- viability, T/C [23]: 115%
- viability, T/C [24]: 97%
- viability, T/C [25]: 88.4%
- viability, T/C [26]: 90.7%
- viability, T/C [27]: 104%
- viability, T/C [28]: 93.8%
- viability, T/C [29]: 93%
- viability, T/C [30]: 80.5%
- viability, T/C [31]: 90.3%
- viability, T/C [32]: 97%
- viability, T/C [33]: 83.5%
- viability, T/C [34]: 90.9%
- viability, T/C [35]: 96.9%
- viability, T/C [36]: 84.6%

SMILES: COc1cccc2c1C(=O)c1c(O)c3c(c(O)c1C2=O)CC(O)(C(=O)CO)CC3OC1CC(N)C(O)C(C)O1 (stereo not given) + Cc1[nH]c2ccc(F)cc2c1-c1nc2c3cccnc3c3ncccc3c2[nH]1
- IC50 (second compound 0.0316 µM): 391 nM
- IC50 (second compound 0.1 µM): 267 nM
- IC50 (second compound 0.316 µM): 259 nM
- IC50 (second compound 1 µM): 433 nM
- IC50 (second compound 3.16 µM): 249 nM
- IC50 (second compound 10 µM): 314 nM
- viability, T/C [1]: 90.1%
- viability, T/C [2]: 71.5%
- viability, T/C [3]: 61.1%
- viability, T/C [4]: 14.7%
- viability, T/C [5]: 4.77%
- viability, T/C [6]: 0.13%
- viability, T/C [7]: 106%
- viability, T/C [8]: 71.6%
- viability, T/C [9]: 49.5%
- viability, T/C [10]: 23.3%
- viability, T/C [11]: 3.92%
- viability, T/C [12]: 0.39%
- viability, T/C [13]: 81.4%
- viability, T/C [14]: 65.9%
- viability, T/C [15]: 47.4%
- viability, T/C [16]: 23.6%
- viability, T/C [17]: 3.52%
- viability, T/C [18]: 0.18%
- viability, T/C [19]: 86.1%
- viability, T/C [20]: 72.5%
- viability, T/C [21]: 60.9%
- viability, T/C [22]: 26.8%
- viability, T/C [23]: 4.08%
- viability, T/C [24]: 0.14%
- viability, T/C [25]: 82.9%
- viability, T/C [26]: 59.3%
- viability, T/C [27]: 52%
- viability, T/C [28]: 24.9%
- viability, T/C [29]: 19.5%
- viability, T/C [30]: 0.2%
- viability, T/C [31]: 82%
- viability, T/C [32]: 70.6%
- viability, T/C [33]: 50.8%
- viability, T/C [34]: 21.8%
- viability, T/C [35]: 3.95%
- viability, T/C [36]: 0.38%

SMILES: CC(=O)O[C@H]1C(=O)[C@@]2(C)[C@H]([C@H](OC(=O)c3ccccc3)[C@]3(O)C[C@H](OC(=O)[C@H](O)[C@@H](NC(=O)c4ccccc4)c4ccccc4)C(C)=C1C3(C)C)[C@]1(OC(C)=O)CO[C@@H]1C[C@@H]2O + Cc1cnc(CNC(=O)c2c(=O)c3ccc(N4CCCN(C)CC4)nc3n3c2sc2ccccc23)cn1
- IC50 (second compound 0.0316 µM): < 31.6 nM
- IC50 (second compound 0.1 µM): < 31.6 nM
- IC50 (second compound 0.316 µM): < 31.6 nM
- IC50 (second compound 1 µM): < 31.6 nM
- IC50 (second compound 3.16 µM): < 31.6 nM
- IC50 (second compound 10 µM): < 31.6 nM
- viability, T/C [1]: 30%
- viability, T/C [2]: 13.6%
- viability, T/C [3]: 11.2%
- viability, T/C [4]: 12.7%
- viability, T/C [5]: 10.6%
- viability, T/C [6]: 9.91%
- viability, T/C [7]: 27.1%
- viability, T/C [8]: 19%
- viability, T/C [9]: 12%
- viability, T/C [10]: 12.8%
- viability, T/C [11]: 11.7%
- viability, T/C [12]: 9.87%
- viability, T/C [13]: 22%
- viability, T/C [14]: 14.2%
- viability, T/C [15]: 10.4%
- viability, T/C [16]: 11.8%
- viability, T/C [17]: 13.8%
- viability, T/C [18]: 12.9%
- viability, T/C [19]: 23.1%
- viability, T/C [20]: 17.3%
- viability, T/C [21]: 17.5%
- viability, T/C [22]: 11.9%
- viability, T/C [23]: 11.8%
- viability, T/C [24]: 14.7%
- viability, T/C [25]: 26%
- viability, T/C [26]: 17.8%
- viability, T/C [27]: 12.8%
- viability, T/C [28]: 12.8%
- viability, T/C [29]: 15.3%
- viability, T/C [30]: 12.7%
- viability, T/C [31]: 23.4%
- viability, T/C [32]: 14.8%
- viability, T/C [33]: 14.5%
- viability, T/C [34]: 12.9%
- viability, T/C [35]: 12.8%
- viability, T/C [36]: 11.2%
